{
  "source": "patent US5639783A",
  "about": "“Ketone derivatives” (Mitsubishi Chemical Corporation, priority 1991, dated 1997)",
  "origin": "cited, not measured here",
  "key": {"[1]": {"tested_on": "microtubule-associated protein", "conditions": "Brain Research, 526, p. 177 (1990); cited from earlier work"}, "[2]": {"tested_on": "cardiac infarction animal models", "conditions": "Arzneimittel Forschung/Drug Research, 36 (1986); cited from earlier work"}, "[3]": {"tested_on": "axon in brain trauma models of rat", "conditions": "Journal of Neurosurgery, 65, p. 92 (1986); cited from earlier work"}},
  "data": [
    {"smiles": "CC(C)CCNC(=O)[C@H](CC(C)C)NC(=O)[C@H]1O[C@@H]1C(=O)O", "note": "[E-64-C]", "values": [
      {"measurement": "degradation of microtubule-associated protein after brain ischemia", "setting": "[1]", "result": "inhibits the degradation of microtubule-associated protein after the brain ischemia"}
    ]},
    {"smiles": "CCOC(=O)[C@@H]1O[C@H]1C(=O)NC(CC(C)C)C(=O)N1CCN(Cc2ccc(OC)c(OC)c2OC)CC1.CCOC(=O)[C@@H]1O[C@H]1C(=O)NC(CC(C)C)C(=O)N1CCN(Cc2ccc(OC)c(OC)c2OC)CC1.O=S(=O)(O)O", "note": "(stereo partly drawn) [NCO-700]", "values": [
      {"measurement": "effect on cardiac infarction", "setting": "[2]", "result": "effective on cardiac infarction"}
    ]},
    {"smiles": "CC(=O)N[C@@H](CC(C)C)C(=O)N[C@@H](CC(C)C)C(=O)N[C@H](C=O)CCCNC(=N)N", "note": "[leupeptin]", "values": [
      {"measurement": "protection of axon in brain trauma models", "setting": "[3]", "result": "can protect axon"}
    ]}
  ]
}
